The first assay relates to adoptive transfer EAE. The assay is described as follows: Adoptive transfer experimental allergic encephalomyelitis (EAE) model. The format is in vivo, mice. The note with it: bid, by gavage, first 5 days; vs vehicle only; FIG. 2. The protocol: An adoptive transfer experimental allergic encephalomyelitis (EAE) model was used, in which the splenic T cells from actively immunized mice were cultured for 4 days in antigen-containing (myelin basic protein) medium. The cells were then transferred to naive recipients, which were then evaluated for clinical changes in motor nerve function in the presence or absence of treatment with LSF or the compound of Example 22 (CT11558). Both compounds were administered on a bid schedule, by gavage, for the first 5 days.
For `C[C@H](CCCCn1c(=O)c2c(ncn2C)n(C)c1=O)N(C)C` [CT11558, (R)-1-(5-N,N-dimethylaminohexyl)-3,7-dimethylxanthine], the “magnitude of observable clinical deficits (motor nerve function)” value is listed as “decrease in the magnitude” and the “onset of observable clinical deficits (motor nerve function)” value was “significant delay in the onset”.
For `C[C@@H](O)CCCCn1c(=O)c2c(ncn2C)n(C)c1=O` [LSF, (R)-1-(5-Hydroxyhexyl)-3,7-dimethylxanthine, reference compound], in that order: “decrease in the magnitude” and “significant delay in the onset”.

For the next assay, the system named is IL-12 induced Th1 differentiation (splenic T cells). The assay is described as follows: IL-12 dependent in vitro T-helper cell (Th1) differentiation assay, IFN-γ production upon secondary anti-CD3 stimulation. It counts as cell-based. The note with it: read-out: IC50, inhibition of IL-12 induced Th1 differentiation as defined by IFN-γ production. The protocol: This example illustrates the inventive compounds' ability to suppress Th1 differentiation in vitro by blocking IL-12 signalling. Each of compounds A through Y were tested in an IL-12 dependent in vitro T-helper cell differentiation assay as described in LeGross et al., J. Exp. Med., 172:921-929 (1990). Recombinant IL-12 was used to induce Th1 differentiation. Spenic T cells were purified utilizing the antibodies RA3-3A1/6.1 (anti-B220), J11d and MAR18.5 (anti-rat kappa chain) to deplete the B cells via complement mediated toxicity following the procedure set forth in Klaus et al., J. Immunol., 149:1867-1875 (1992). Splenic T cells were stimulated at 5×10^5/ml with insoluble anti-CD3 alone (145-2C11, Pharmingen, San Diego, Calif.), or anti-CD3 and 5 U/ml IL-12, with and without each inventive compound. After seven days, equal numbers of viable cells were restimulated for 24 hours with anti-CD3 without the inventive compounds, and the supernatants were collected and assayed for IFN-γ production. IFN-γ and IL-4 levels were measured by Interest kits from Genzyme specific for IFN-γ and IL-4.
Th1 differentiation was induced by culturing anti-CD3 stimulated T cells in the presence of exogenous IL-12. […] The values in the “IC50 μM” column were determined by measuring the inhibition of IL-121 induced Th1 differentiation as defined by IFN-γ production upon secondary stimulation with anti-CD3 alone. None of the compounds affected the viability or recovery of T cells after one week of culture.
Usually IC50 stands for the concentration that gives 50% inhibition. Consider `CNc1nc2c([nH]1)c(=O)n(CCCC[C@@H](C)O)c(=O)n2C` [CT12447, (R)-1-(5-hydroxyhexyl)-3-methyl-8-methylaminoxanthine], for which the 50% inhibitory concentration (IC50) turned out to be 25 µM.
Still for that read-out and setting: then `C[C@@H](O)CCCCn1c(=O)c2[nH]c(=O)[nH]c2n(C)c1=O` [CT12452, (R)-1-(5-hydroxyhexyl)-3-methyluric acid], with 35 µM.

The same assay, now with this note: splenic T cells, anti-CD3 and 5 U/ml IL-12, seven days with compound, restimulated 24 hours with anti-CD3 alone, read-out: IC50, inhibition of IL-12 induced Th1 differentiation as defined by IFN-γ production.
In the case of `CC(CCCCn1c(=O)c2c(ncn2C)n(C)c1=O)NO` (centres unmarked) [CT7549, 1-(5-(N-Hydroxy)aminohexyl)-3,7-dimethylxanthine], the IC50 worked out at 21 µM.
For the molecule `C[C@@H](O)CCCCn1c(=O)n(C)c(=O)c2c1ncn2C` [CT11495, (R)-3-(5-Hydroxyhexyl)-1,7-dimethylxanthine], the IC50 was 35 µM.
With `C[C@@H](O)CCCCn1c(=O)c2c([nH]c(=O)n2C)n(C)c1=O` [CT11499, (R)-1-(5-Hydroxyhexyl)-3,7-dimethyluric acid], the IC50 was 30 µM.
Turning to `C[C@@H](O)CCCCn1c(=O)c2c(ncn2Cc2ccccc2)n(C)c1=O` [CT12404], the IC50 was 28 µM.
As to `Cc1nc2c(c(=O)n(CCCC[C@@H](C)O)c(=O)n2C)n1Cc1ccccc1` [CT12407, (R)-1-(5-hydroxyhexyl)-7-benzyl-3,8-dimethylxanthine], the IC50 was 30 µM.
In the case of `C[C@@H](O)CCCCn1c(=O)c2c(ncn2C)n(Cc2ccco2)c1=O` [CT12422, (R)-3-(2-Furylmethyl)-1-(5-hydroxyhexyl)-7-methylxanthine], the concentration for half-maximal inhibition (IC50) was found to be 19 µM.
With `C[C@@H](O)CCCCn1c(=O)c2[nH]c(CN)nc2n(C)c1=O` [CT12440, (R)-8-Aminomethyl-1-(5-hydroxyhexyl)-3-methylxanthine], the IC50 came out at 9 µM.
On the same count and under the same terms, then `CNCc1nc2c([nH]1)c(=O)n(CCCC[C@@H](C)O)c(=O)n2C` [CT12441, (R)-1-(5-hydroxyhexyl)-3-methyl-8-(N-methyl)aminomethylxanthine], with 19 µM; and `Cc1cn(C)c2c1c(=O)n(CCCC[C@@H](C)O)c(=O)n2C` [CT12458, (R)-3-(5-Hydroxyhexyl)-1,7,9-dimethyl-2,4-pyrrolo[2,3-d]pyrimidinedione], with 27 µM.
Still for that read-out and setting: with `Cc1c[nH]c2c1c(=O)n(CCCC[C@@H](C)O)c(=O)n2C` [CT12459, (R)-1,9-dimethyl-3-(5-hydroxyhexyl)-2,4-pyrrolo[2,3-d]pyrimidinedione] the figure was 17 µM; with `C[C@@H](O)CCCCn1c(=O)c2c(ncn2C)n(CCCCCCNC(=O)CCCC[C@@H]2SC[C@@H]3NC(=O)N[C@@H]32)c1=O` [CT12460, (R)-3-(6-biotinylamidohexyl)-1-(5-hydroxyhexyl)-7-methylxanthine], 21.8 µM.
On the same count and under the same terms, with `C[C@@H](O)CCCCn1c(=O)c2nsnc2n(C)c1=O` [CT12461, (R)-3-(5-hydroxyhexyl)-1-methyl-[1,2,5]thiadiazolo[3,4]pyrimidine-2,4-dione] the figure was 17 µM.
Consider `C[C@@H](O)CCCCn1c(=O)c2[nH]nnc2n(C)c1=O` [CT12463, (R)-1-(5-Hydroxyhexyl)-3-methyl-8-azaxanthine], for which the concentration for half-maximal inhibition (IC50) came to 31 µM.
The same measure, in the same setting: with `C[C@@H](O)CCCCn1c(=O)c2c(nnn2C)n(C)c1=O` [CT12464, (R)-3,7-dimethyl-1-(5-hydroxyhexyl)-8-azaxanthine] the figure was 12 µM.
Still for that read-out and setting: with `C[C@@H](O)CCCCn1c(=O)c2nn(C)nc2n(C)c1=O` [CT12465, (R)-3,8-Dimethyl-1-(5-hydroxyhexyl)-8-azaxanthine] the figure was 15 µM; with `CNc1nc2c(c(=O)n(CCCC[C@@H](C)O)c(=O)n2C)n1C` [CT12481, (R)-3,7-dimethyl-1-(5-hydroxyhexyl)-8-N-methylaminoxanthine], 24.7 µM; with `C[C@@H](O)CCCCn1c(=O)c2c(nc(N(C)C)n2C)n(C)c1=O` [CT12485, (R)-3,7-Dimethyl-8-N,N-dimethylamino-1-(5-hydroxyhexyl)-xanthine], 10 µM.
Regarding `CSc1nc2c([nH]1)c(=O)n(CCCC[C@@H](C)O)c(=O)n2C` [CT12490, (R)-1-(5-Hydroxyhexyl)-3-methyl-8-methylsulfanylxanthine], the IC50 worked out at 20 µM.
Consider `C[C@H](CCCCn1c(=O)c2c(ncn2C)n(C)c1=O)OP(=O)(O)O` [CT17557], for which the IC50 came out at 9 µM.
Same read-out and setting: with `C[C@H](O)CCCCn1c(=O)c2c(ncn2Cc2ccccc2)n(C)c1=O` [CT22404, (S)-1-(5-Hydroxyhexyl)-7-benzyl-3-methylxanthine] the figure was 10 µM; with `C[C@H](O)CCCCn1c(=O)c2c(nnn2C)n(C)c1=O` [CT22464, (S)-3,7-Dimethyl-1-(5-hydroxyhexyl)-8-azaxanthine], 30 µM; with `C[C@H](O)CCCCn1c(=O)c2nn(C)nc2n(C)c1=O` [CT22465, (S)-3,8-dimethyl-1-(5-hydroxyhexyl)-8-azaxanthine], 14 µM.

The next assay deals with IL-12 induced IFN-γ secretion. The assay is described as follows: IL-12 induced IFN-γ secretion (interferon gamma induction) assay in splenocyte culture. The note with it: compound added to a culture of splenocytes; FIG. 1. It counts as cell-based. The protocol:
The ability of IL-12 to induce generation of Th1 cells is aided by IFN-γ, a cytokine which is known to be induced by IL-12 itself. (R)-3-(N-biotinyl-6-aminohexyl)-1-(5-hydroxyhexyl)-7-methylxanthine (CT12460) and (R)-3-(N-biotinyl-2-aminoethyl)-1-(5-hydroxyhexyl)-7-methylxanthine (CT13410) were tested in an interferon gamma (IFN-γ) induction assay as described in Kobayashi, M., et al., “Identification and Purification of Natural Killer Cell Stimulatory Factor (NKSF), A Cytokine with Multiple Biologic Effects on Human Lymphocytes,” J. Exp. Med.U., 170:827-845 (at 829, 830 and 836) (1989). See also, Wolf, S., et al., “Interluekin 12: A Key Modulator of Immune Function,” Stem Cells, 12:154-168 (1994) and Trinchieri, supra.
`C[C@@H](O)CCCCn1c(=O)c2c(ncn2C)n(CCCCCCNC(=O)CCCC[C@@H]2SC[C@@H]3NC(=O)N[C@@H]32)c1=O` [CT12460, (R)-3-(6-biotinylamidohexyl)-1-(5-hydroxyhexyl)-7-methylxanthine]: the “IL-12 induced IFN-γ secretion” value is listed as “inhibited”.
On the same count and under the same terms, with `C[C@@H](O)CCCCn1c(=O)c2c(ncn2C)n(CCNC(=O)CCCC[C@@H]2SC[C@@H]3NC(=O)N[C@@H]32)c1=O` [CT13410, (R)-3-(6-biotinylamidoethyl)-1-(5-hydroxyhexyl)-7-methylxanthine] the entry was “inhibited”.

The next assay concerns GVHD. The assay is described as follows: Graft-versus-host disease (GVHD) model. The format is in vivo. The note with it: bid, by gavage, first 5 days; assessed over 36 days after adoptive transfer of cells; vs vehicle control; FIG. 3. As for the experimental part: In a GVHD model, an irradiated F1 hybrid recipient population, bred across a parental major H2 mismatch, was infused with maternal cells activated in vitro with conconavalian A (Con A) and IL-12. LSF and the compound of Example 7 (CT12441) were compared with a vehicle control for efficacy. Both compounds were administered on a bid schedule, by gavage, for the first 5 days.
On to `CNCc1nc2c([nH]1)c(=O)n(CCCC[C@@H](C)O)c(=O)n2C` [CT12441, (R)-1-(5-hydroxyhexyl)-3-methyl-8-(N-methyl)aminomethylxanthine], for which the survival result is given as “significant increase of survival”.
Take `C[C@@H](O)CCCCn1c(=O)c2c(ncn2C)n(C)c1=O` [LSF, (R)-1-(5-Hydroxyhexyl)-3,7-dimethylxanthine, reference compound]: the survival entry is “significant increase of survival”.

These data come from US6878715B1, “Therapeutic compounds for inhibiting interleukin-12 signals and method for using same” (Cell Therapeutics, Inc., priority 1994, dated 2005).
